In assay [1] the target is T1, bone morphogenetic protein-2 (BMP-2) [骨形态发生蛋白-2(BMP-2)] (Homo sapiens, UniProt P12643).
T1 sequence (P12643 283-396): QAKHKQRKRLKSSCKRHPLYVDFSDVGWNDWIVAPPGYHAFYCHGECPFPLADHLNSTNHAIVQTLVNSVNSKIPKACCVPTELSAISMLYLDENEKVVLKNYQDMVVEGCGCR
As to the kind of experiment: Glass surface BMP-2 binding, protein immunofluorescence. To be noted: relative to (Lys0.4Nle0.6)30 polymer; grafted on glass.

The target in assay [2] is T2, fibroblast growth factor-21 (FGF-21) [成纤维细胞生长因子-21(FGF-21)] (Homo sapiens, UniProt Q9NSA1).
T2 sequence (Q9NSA1 29-209): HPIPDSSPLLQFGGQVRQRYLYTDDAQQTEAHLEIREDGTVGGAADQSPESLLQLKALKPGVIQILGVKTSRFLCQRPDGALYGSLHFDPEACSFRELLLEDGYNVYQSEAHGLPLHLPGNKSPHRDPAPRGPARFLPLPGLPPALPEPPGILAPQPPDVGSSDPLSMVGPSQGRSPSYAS
As to the kind of experiment: Glass surface FGF-21 binding, protein immunofluorescence. As to conditions: relative to (Lys0.4Nle0.6)30 polymer; grafted on glass.

In the next assay the target is TGF-β (Homo sapiens, UniProt P01137). As to the kind of experiment: Glass surface TGF-β binding, peptide versus polymer. To be noted: relative to (Lys0.4Nle0.6)30 polymer; grafted on glass.
Chain of TGF-β (P01137 279-390 limits assumed): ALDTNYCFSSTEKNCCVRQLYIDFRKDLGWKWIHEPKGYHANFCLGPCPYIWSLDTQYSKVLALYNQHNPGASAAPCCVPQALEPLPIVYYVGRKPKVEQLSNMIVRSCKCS
Assay [3] addresses platelet-derived factor PDGF-AA [血小板衍生因子PDGF-AA] (Homo sapiens, UniProt P04085). As to the kind of experiment: Glass surface PDGF-AA binding, peptide versus polymer. To be noted: relative to (Lys0.4Nle0.6)30 polymer; grafted on glass.
The subject of the next assay is growth factors [生长因子]. As to the kind of experiment: Glass surface growth factor binding, peptide versus polymer (overall). To be noted: peptide versus (Lys0.4Nle0.6)30 polymer; grafted on glass.

On to “(L-Lys)-(L-Nor)-(D-Lys)-(D-Nor)-(L-Nor)-(L-Lys)-(D-Nor)-(D-Lys)-(L-Nor)-(D-Nor)-(L-Lys)-(L-Nor)-(D-Lys)-(D-Nor)-(L-Nor)-(L-Lys)-(D-Nor)-(D-Lys)-(L-Nor)-(D-Nor)-(L-Lys)-(L-Nor)-(D-Lys)-(D-Nor)-(L-Nor)-(L-Lys)-(D-Nor)-(L-Nor)-(L-Cys) [Lys0.4Nle0.6多肽]”, for which the “BMP-2 binding amount, multiple of peptide polymer” value in assay [1] was determined as 1.99 fold. In assay [2], the “FGF-21 binding amount, multiple of peptide polymer” value is on record as 2.55 fold. The “TGF-β binding amount, multiple of peptide polymer” value on TGF-β came out at 1.61 fold. In assay [3], the “PDGF-AA binding amount, multiple of peptide polymer” value is 2.06 fold. Besides, the “growth factor binding compared with polymer” value in the assay on growth factors [生长因子] is “优于聚合物”.
